Measurements from patent US20070049626A1, “Treating premature ejaculation using gabapentin and pregabalin prodrugs” (priority 2005, published 2007).

Columns and labels:
[1] = system: PCA-induced ejaculation in anaesthetized rats; test: p-chloroamphetamine (PCA)-induced ejaculation in anaesthetized rats; assay type: in vivo, rat; conditions: for effect on PCA-induced ejaculation: 1, 3, 10 or 30 mg/kg po, 60 min prior to PCA; for quality of erection: PCA model; for ejaculatory latency: doses above 3 mg/kg po, excipient-only about 300 s
Method: (§1) For all the sexual behavior tests, the rapid ejaculating Sprague Dawley rats, weighing 350-450 g, are used as an animal model of premature ejaculation (classified as ejaculatory latency <300 s during baseline assessment). Prior to the experiments the animals are housed in groups (2 rats per cage) under controlled 12 h light-dark cycle (lights on at 07:00), constant temperature (23±1° C.), and humidity (55±5%). The animals are given free access to standard food pellets and water.
The compounds are dosed orally by taking the tablets of Examples 1 and 2, finely crushing them and suspending the resulting powder in an aqueous vehicle for oral administration to rats by gavage. Compounds (100) and (101) are tested at 1, 3, 10 or 30 mg/kg po, 60 min prior to PCA administration. Compounds (100) and (101) each dose-dependently increases ejaculatory latency by up to 250%. As a baseline comparison, some of the rats are given a placebo formulation similar to Examples 1 and 2, but containing no prodrug.

[2] = system: rapid ejaculating Sprague Dawley rats; test: Copulatory behavior in rapid ejaculating conscious rats (model of premature ejaculation); assay type: in vivo, rat; conditions: rapidly-ejaculating conscious rats; for other effects on copulatory behavior: 10 mg/kg oral; for increase of ejaculatory latency / ejaculatory latency (time to ejaculate): 10 mg/kg, 60 min post oral dosing; for increase of ejaculatory latency: P<0.01; for ejaculatory latency (time to ejaculate): excipient-only about 140 s
Method: as §1
The rats are placed in an observation arena (50-60 cm diameter), starting 5 hours into the dark cycle and observed under red illumination. Three to four minutes after placing the male in the arena, a receptive female (ovariectomised, oestradiol benzoate/progesterone injection 48 hour before behavioral study) is introduced into the arena and the following parameters are noted: (i) ejaculatory latency (EJL; time taken from addition of receptive female into the arena to ejaculation); (ii) copulatory efficiency (CE; ejaculatory latency/the number of intromissions to ejaculation, i.e., the number of seconds between intromissions); (iii) intromission frequency (IF; the number of intromissions to ejaculation); (iv) mount frequency (MF; the number of mounts to ejaculation); (v) post ejaculatory interval (PEI; the time taken from ejaculation to the commencement of copulatory behavior).
Rodent copulatory behavior is characterized by a series of mounts, with and without vaginal insertion (50-80% of mounts result in intromission (vaginal penetration)) and ejaculation occurs after 6 to 12 intromissions. Each intromission lasts a matter of seconds—it is not possible to quantify intromission length i.e., intravaginal latency. The effect of compounds (100) and (101) is assessed on a number of copulatory parameters (see above). We are focusing on ejaculatory latency as an objective clinical outcome measure of time taken to achieve ejaculation. The study is performed in rapid ejaculating rats as a model of premature ejaculation (rats characterized by ejaculatory latency <300 s at baseline). Compound (100) and (101) increases ejaculatory latency by 58% in rapidly-ejaculating conscious rats (P<0.01), i.e., compound (100) and (101) (each to be dosed at 10 mg/kg, 60 min post oral dosing)-treated animals take about 200 s to ejaculate compared to about 140 s in excipient-only treated animals.

[3] = Tmax after oral administration of immediate release formulation; assay type: in vivo; conditions: human, blood, following oral administration
Description: The compounds disclosed herein, for example, the gabapentin prodrug 1-{[(α-isobutanoyloxyethoxy)carbonyl]aminomethyl}-1-cyclohexane acetic acid, is more efficacious than the parent drug molecule (i.e., gabapentin) in treating premature ejaculation because the disclosed compounds require less time to reach a therapeutic concentration in the blood, i.e., the compounds disclosed herein have a shorter Tmax than their gabapentin or pregabalin “counterparts” when taken orally. […] This provides an advantage over the parent drugs (i.e., gabapentin and pregabalin) in that the patient need not wait as long after administering the prodrugs before a therapeutic concentration of the active parent drug in the blood is reached. Thus, the prodrugs disclosed herein allow the patient to dose shortly before sexual activity, allowing sexual activity to occur with more spontaneity, compared to dosing of either gabapentin or pregabalin.

| Compound | effect on PCA-induced ejaculation [1] | quality of erection [1] | ejaculatory latency [1] | other effects on copulatory behavior [2] | increase of ejaculatory latency [2] | ejaculatory latency (time to ejaculate) [2] | Tmax [3] |
| --- | --- | --- | --- | --- | --- | --- | --- |
| CC(C)CC(CNC(=O)OC(C)OC(=O)C(C)C)CC(=O)O (stereo not drawn) [Compound (101), 3-{[(α-Isobutanoyloxyethoxy)carbonyl]aminomethyl}-5-methyl Hexanoic Acid] | significantly delays | not influenced | about 1000 s | no other significant effects | 58% | about 200 s |  |
| CC(OC(=O)NCC1(CC(=O)O)CCCCC1)OC(=O)C(C)C (stereo not drawn) [Compound (100), 1-{[(α-Isobutanoyloxyethoxy)carbonyl]aminomethyl}-1-Cyclohexane Acetic Acid] | significantly delays | not influenced | about 1000 s | no other significant effects | 58% | about 200 s |  |
| NCC1(CC(=O)O)CCCCC1 [gabapentin] |  |  |  |  |  |  | 2.8 to 3.3 h |
